In patent US20100016262A1, “Compositions and methods for reducing hepatotoxicity associated with drug administration and treating non-alcoholic fatty liver disease, non-alcoholic steatohepatitis and associated cirrhosis” (YALE UNIVERSITY, priority 2007, published 2010):
Entries after “also recorded” stand apart in the source; their conditions may differ.

Key:
wild-type mice = test: Acetaminophen (APAP) induced hepatotoxicity in mice (500 mg/kg ip); type: in vivo, mouse
Procedure: • Animals. C57BL/6 mice were purchased from commercial sources. NALP3 −/−, IL-18 −/− ASC −/−, IPAF −/− and TLR9−/− mice were backcrossed nine generations onto the C57BL/6 background. Caspase 1 −/− mice were backcrossed 5-6 generations onto the C57BL/6 background. These mice have been described previously(39, 40). IL-1β was neutralized in by using the anti-IL-1β antibody from clone B 122 (a gift of R. Schreiber, Washington University) at a dose of 0.2 mg/mouse iv twice a day for a total of 48 hours after giving APAP. Control mice received Armenian hamster isotype control antibody. For survival experiments animals were euthanized when they became moribund using criteria of lack of response to stimuli or lack of righting reflex. Animal protocols were approved by the Yale University animal care and use committee. [include references for IPAF−/− (M. Lara-Tejero et al. JEM 2006) and IL-18−/−. Need to add TLR9−/− and TLR3−/−] • Acetaminophen induced hepatotoxicity. APAP (Sigma, MO) solution was made fresh for each experiment in PBS at 20 mg/ml and heated in a water bath to 55° C. to dissolve. APAP was dosed at 500 mg/kg and injected I.P after 15 hrs of starvation. Animals were euthanized by ketamine/xylazine injection at 12 hours for collection of serum, isolation of liver lymphocytes or collection of liver tissue for histology, or they were observed every four hours for 72 hours until they reached criteria for euthanasia (lack of response to stimuli or lack of righting reflex). • Aspirin/clopidogrel/SC-560. Aspirin (Sigma, MO) was made fresh for each experiment. For dosing prior to APAP it was dissolved in single deionized water at 60 mg/l and heated to 42° C. with rapid stirring to dissolve, then rapidly placed in an ice water bath to cool. Aspirin in water was given to the mice 60-72 hours prior to APAP injection. Assuming water consumption of 3-5 ml per day this dose would be equivalent to a 300-500 mg dose in an 80 kg adult human. For co-administration of APAP and aspirin, aspirin was gavaged at a dose of 6 mg/kg in a volume of 100 ul of water immediately after ip injection of APAP. Clopidogrel (Gilead Pharmaceuticals, CA.) was dissolved in PBS at 6 mg/ml and administered by gavage of 100 ul, 30 mg/kg, every 24 hours beginning 48 hours prior and ending 24 hours after APAP injection. Cox-1 inhibitor (SC-560). SC-560 (Cayman chemical, MI) was dissolved at 50 mg/ml in DMSO and further dissolved in PBS in order to gavage a dose of 5 mg/kg in 100 ul. It was administered twice per day beginning 60 hours prior to Tylenol and continued for 48 hours after APAP injection as previously established(41). • Uric Acid Peritonitis. Peritonitis was induced with uric acid crystals as previously described by injecting 3 mg of MSU intraperitoneally per mouse(27). Three hours after injection peritoneal lavage was performed on mice euthanized by isoflurane inhalation. Neutrophil infiltration was evaluated by flow cytometry. The percent of Gr-1 (BD Pharmingen, CA) positive cells was multiplied by the total cell counts. • Liver sinusoidal endothelial cell (LSEC) isolation. After in-situ pronase digestion the non-parenchymal cell suspension is centrifuged for 5 min at 100 g to remove most of the parenchymal cells. This process is repeated until no pellet is observed. The supernatant enriched in LSEC is centrifuged for 10 min at 350 g. The pellet is resuspended in PBS and centrifuged for 10 min at 350 g. The cells are resuspended in PBS and layered (3.3 ml) on the top of two-step percoll gradient (put the 5 ml of 50% percoll at the bottom and put the 6.6 ml of 25% percoll at the top). The gradients are centrifuged at 900 g for 20 min and the intermediate layer included LSEC is collected and cultured in the media (EGM™-2 MV—Microvascular Endothelial Cell Medium-2, CAMBREX, Charles City, Iowa). • ODN2088 and IRS 954 injection.

THP1 cells = test: LPS stimulation of THP1 cells, real-time PCR for pro-IL-1β; type: cell-based, human; settings: overnight with aspirin (1.5 mM, 0.15 mM), then LPS 10 μg/ml for 8 hours; P<0.05
mice and rats = settings: aspirin 200-600 mg/kg, dose range toxic to humans; cited from earlier work
NALP3 inflammasome = target: T1, NALP3 inflammasome (Mus musculus, UniProt Q8R4B8); test: Uric acid (MSU crystal) peritonitis, model of NALP3 inflammasome activation; type: in vivo; settings: low dose aspirin (60 mg/l) in drinking water for three days before MSU 3 mg/mouse ip; lavage after 3 hours; P<0.0001
T1 construct: endogenous in cells; host or cells: living C57BL/6 wild-type mice (peritoneal cavity, in vivo)
Procedure: • Animals. C57BL/6 mice were purchased from commercial sources. NALP3 −/−, IL-18 −/− ASC −/−, IPAF −/− and TLR9−/− mice were backcrossed nine generations onto the C57BL/6 background. Caspase 1 −/− mice were backcrossed 5-6 generations onto the C57BL/6 background. These mice have been described previously(39, 40). IL-1β was neutralized in by using the anti-IL-1β antibody from clone B 122 (a gift of R. Schreiber, Washington University) at a dose of 0.2 mg/mouse iv twice a day for a total of 48 hours after giving APAP. Control mice received Armenian hamster isotype control antibody. For survival experiments animals were euthanized when they became moribund using criteria of lack of response to stimuli or lack of righting reflex. Animal protocols were approved by the Yale University animal care and use committee. [include references for IPAF−/− (M. Lara-Tejero et al. JEM 2006) and IL-18−/−. Need to add TLR9−/− and TLR3−/−] • Acetaminophen induced hepatotoxicity. APAP (Sigma, MO) solution was made fresh for each experiment in PBS at 20 mg/ml and heated in a water bath to 55° C. to dissolve. APAP was dosed at 500 mg/kg and injected I.P after 15 hrs of starvation. […] Neutrophil infiltration was evaluated by flow cytometry. […]

[1] = aspirin pre-treatment, 12 hours after APAP, p<0.03
[2] = aspirin treatment, after APAP, p<0.005

T1 sequence (Q8R4B8 whole entry): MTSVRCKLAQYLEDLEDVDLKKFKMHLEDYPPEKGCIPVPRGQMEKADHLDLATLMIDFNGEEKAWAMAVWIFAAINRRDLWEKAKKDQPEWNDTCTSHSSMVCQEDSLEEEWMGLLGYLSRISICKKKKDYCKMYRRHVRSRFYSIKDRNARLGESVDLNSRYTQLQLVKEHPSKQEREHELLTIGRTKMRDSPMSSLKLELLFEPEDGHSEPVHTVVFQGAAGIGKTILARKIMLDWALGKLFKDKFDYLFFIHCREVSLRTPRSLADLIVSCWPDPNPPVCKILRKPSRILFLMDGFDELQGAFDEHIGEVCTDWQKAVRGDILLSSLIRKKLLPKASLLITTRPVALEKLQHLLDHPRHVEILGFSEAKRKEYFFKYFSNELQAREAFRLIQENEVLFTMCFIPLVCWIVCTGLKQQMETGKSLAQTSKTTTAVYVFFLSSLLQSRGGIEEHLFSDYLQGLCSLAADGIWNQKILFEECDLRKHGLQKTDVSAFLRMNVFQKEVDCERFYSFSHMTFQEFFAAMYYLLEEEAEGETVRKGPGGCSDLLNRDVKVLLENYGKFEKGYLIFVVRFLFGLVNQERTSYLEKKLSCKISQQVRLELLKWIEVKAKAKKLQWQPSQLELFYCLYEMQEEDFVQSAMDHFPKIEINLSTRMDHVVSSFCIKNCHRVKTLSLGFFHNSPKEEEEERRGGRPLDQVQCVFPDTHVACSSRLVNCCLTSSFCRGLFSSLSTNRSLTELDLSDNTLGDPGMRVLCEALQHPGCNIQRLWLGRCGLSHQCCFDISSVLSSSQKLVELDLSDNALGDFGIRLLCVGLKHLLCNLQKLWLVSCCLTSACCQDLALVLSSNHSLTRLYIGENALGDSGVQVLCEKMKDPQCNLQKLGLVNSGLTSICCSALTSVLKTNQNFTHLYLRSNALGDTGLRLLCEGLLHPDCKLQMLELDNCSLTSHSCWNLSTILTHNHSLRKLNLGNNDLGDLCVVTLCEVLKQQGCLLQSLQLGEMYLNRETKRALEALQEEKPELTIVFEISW

For `COc1ccc(-n2nc(C(F)(F)F)cc2-c2ccc(Cl)cc2)cc1` [SC-560], the “survival after APAP (protection against APAP toxicity)” value (wild-type mice; SC-560 5 mg/kg gavage twice daily from 60 hours before to 48 hours after APAP, n=10 vs PBS n=10, P<0.97) was “did not protect”.

With `CC(=O)Oc1ccccc1C(=O)O` [aspirin, acetylsalicylic acid] the “serum IL-1β levels (ELISA)” value (wild-type mice; ASA in drinking water, after APAP, p<0.02) was “significant reduction”, the “survival after APAP” value (wild-type mice; aspirin 60 mg/l in drinking water for 3 days before APAP 500 mg/kg ip, n=17 vs control n=13, P<0.02) was “markedly improved survival” and the survival (wild-type mice; aspirin given concordantly with APAP, 6 mg/kg by gavage immediately after APAP, control 22% ±19%, P<0.04) was 43% ±11%. For the same compound, the “liver histology (H&E), liver injury and hemorrhage” value (wild-type mice; aspirin in drinking water for three days before APAP, 12 hours after APAP) was “markedly improved; also recorded: significant reduction in APAP induced liver injury and hemorrhage”, the “pro-IL-1β message, whole liver (real-time PCR)” value (wild-type mice; [1]) was “reduced to normal levels” and the “pro-IL-18 message, whole liver (real-time PCR)” value (wild-type mice; [1]) was “reduced to normal levels”. The “serum ALT” value (wild-type mice; aspirin pre-treatment, 12 hrs after APAP, P<0.04) was “significantly lower”, the “IFN-γ expression, whole liver (real-time PCR)” value (wild-type mice; [2]) was “reduced” and the “TNF-α expression, whole liver (real-time PCR)” value (wild-type mice; [2]) was “reduced”. The “pro-IL-1β transcript up-regulation by LPS” value (THP1 cells) was “reduced”, the “liver injury from APAP” value (mice and rats) was “reduce liver injury” and the “survival from APAP” value (mice and rats) was “not improve survival”. The “neutrophil exudates (Gr-1 positive neutrophils in peritoneal lavage)” value (NALP3 inflammasome) was “eightfold reduction”.

In the case of `COC(=O)[C@H](c1ccccc1Cl)N1CCc2sccc2C1` [clopidogrel], the “survival after APAP (protection against APAP toxicity)” value (wild-type mice; clopidogrel 30 mg/kg gavage every 24 hrs from 48 hours before to 24 hours after APAP, n=15 vs PBS n=15, P<0.31) is reported as “did not protect”.
